Data set [1] has as its system lipase. The note with it: ref Guo et al. 2012; cited from earlier work. The source says: (§1) Antimicrobial lipopeptides have been purified from many bacterial genera including several Streptomyces spp. such as S. violaceus var. aspartocinius (aspartocin), S. griseoflavus (tsushimycin), S. viridochromogens (laspartomycin), S. coelicolor (calcium-dependent antibiotic), S. roseosporus (daptomycin), S. fradiae (A54145), S. parvulus var. parvuli (parvuline) and S. canus (amphomycin) (Schneider et al. [2009]). The present study reports the production of another novel lipopeptide from a Streptomyces sp. The primary structure of lipopeptide was determined using a combination of chemical rea ...

Data set [2] addresses T1, trypsin (Bos taurus, UniProt P00760).
T1 sequence (P00760 24-246): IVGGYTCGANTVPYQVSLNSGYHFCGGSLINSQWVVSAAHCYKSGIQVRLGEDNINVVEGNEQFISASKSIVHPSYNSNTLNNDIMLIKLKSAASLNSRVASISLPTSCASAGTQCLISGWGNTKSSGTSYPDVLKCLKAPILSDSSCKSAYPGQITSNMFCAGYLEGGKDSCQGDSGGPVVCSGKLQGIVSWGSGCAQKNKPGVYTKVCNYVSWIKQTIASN
On the set-up: purchased Sigma Aldrich. Conditions: ref Guo et al. 2012; cited from earlier work.
Text: as §1

Data set [3] concerns Chinese hamster ovary (CHO) cell line. Put plainly: cells. The note with it: 48 h; for growth inhibition: SRB, OD 540 nm. Format: cell-based. As to the method:
In vitro cytotoxicity was evaluated using sulforhodamine B dye assay (Skehan et al. [1990]). The Chinese hamster ovary cell line (CHO) was used for the assay. Camptothecin (CPT), an anticancer drug was used as standard. The 96-well tissue culture plate, containing different concentrations of lipopeptide (2.5- 25 μg/ml) and CHO cells, was incubated for 48 h and the cell growth was stopped with trichloroacetic acid (50% TCA, 50 μl). The optical density (OD) was recorded at 540 nm on ELISA reader and percent growth inhibition was calculated.

The subject of data set [4] is Salmonella typhimurium (TA98). Put plainly: Ames test (Salmonella reverse mutation test). Type of data set: cell-based. As to the method: Mutagenicity of the lipopeptide was evaluated by Ames test (Maron and Ames [1983]). This Salmonella reverse mutation test is based on histidine dependence and mutations in Salmonella typhimurium (TA98/ MTCC 1251, IMTECH, Chandigarh). Concentrations of the lipopeptide used for checking toxicity were 50 and 100 μg 0.1 ml^−1 plate^−1. The overnight grown, 0.1 ml bacterial culture and 0.1 ml of lipopeptide were added to 2.0 ml of top agar. The contents were mixed and poured onto glucose minimal agar plates immediately. The plates were […] incubated at 37°C for 48 h. The experiment was repeated to confirm the results. To determine the spontaneous reversion which is characteristic of the tester strain (TA 98), negative control (0.1 ml bacterial culture + 0.1 ml DMSO plate^−1) was run while 4-Nitro-o-phenylenediamine (20 μg 0.1 ml^−1 plate^−1) was used as a positive control mutagen. The mutagenic potential of the lipopeptide was determined by comparing the number of colonies with control plates where no test compound was added.
(The Ames test uses bacterial strains that need an amino acid and regain growth without it when mutated back.)

Data set [5] concerns Bacillus subtilis (MTCC 619). The data set is described as follows: Kirby-Bauer disk diffusion susceptibility test. Type of data set: cell-based. The note with it: 10 μg lipopeptide per 6 mm disc, Mueller-Hinton agar, 24-48 h; duplicates, repeated thrice. As to the method:
(§2) Sensitivity of test organisms to purified lipopeptide was measured in terms of zone of inhibition using Kirby-Bauer disk diffusion susceptibility test (Bauer et al. [1966]). The plates containing Mueller-Hinton agar, yeast malt agar and potato dextrose agar were seeded with test bacteria, yeasts and fungi, respectively. Filter paper discs (6 mm) impregnated with 10 μg of lipopeptide were placed on media plates. The diameter of the resultant zone of inhibition was measured in mm after 24- 48 hours of incubation. Each experiment was performed in duplicates and repeated thrice. Various test organisms used in the study included Bacillus subtilis (MTCC 619), Mycobacterium smegmatis (MTCC 6), Staphylococcus epidermidis (MTCC 435), Escherichia coli (MTCC 1885), Klebsiella pneumoniae sub sp. pneumoniae (MTCC 109), Enterobacter aerogenes (MTCC 111), Salmonella typhi (MTCC 733), multi-drug resistant E. coli, MRSA, VRE, Candida albicans (MTCC 3017), Rhodotorula rubra (MTCC 248), Colletotrichum acutatum (MTCC 1037), Cercospora beticola (GenBank acc. no. KJ461435), Fusarium oxysporum f.sp. dianthi (MTCC 6659), and Alternaria brassicicola (MTCC 2102).

In data set [6] the test system is Mycobacterium smegmatis (MTCC 6). Put plainly: Kirby-Bauer disk diffusion susceptibility test. Format: cell-based. Conditions: 10 μg lipopeptide per 6 mm disc, Mueller-Hinton agar, 24-48 h; duplicates, repeated thrice. As to the method:
as §2
For orientation: A growth-free zone around the sample is the usual read-out of agar diffusion tests.

The test system of data set [7] is tested Gram-negative bacteria. The data set is described as follows: Kirby-Bauer disk diffusion susceptibility test. Format: cell-based. Conditions: 10 μg per disc. As to the method:
as §2

In another data set the test system is fungi. The data set is described as follows: Kirby-Bauer disk diffusion susceptibility test. Format: cell-based. The note with it: 10 μg per disc. As to the method:
as §2

Data set [8] concerns Staphylococcus epidermidis (MTCC 435). The data set is described as follows: Kirby-Bauer disk diffusion susceptibility test. Format: cell-based. The note with it: 10 μg lipopeptide per 6 mm disc, Mueller-Hinton agar, 24-48 h; duplicates, repeated thrice. As to the method: as §2
The subject of the next data set is MRSA. The data set is described as follows: Kirby-Bauer disk diffusion susceptibility test. Type of data set: cell-based, Staphylococcus aureus. Conditions: clinical isolate; 10 μg lipopeptide per 6 mm disc, Mueller-Hinton agar, 24-48 h; duplicates, repeated thrice. As to the method:
as §2

The next data set deals with T2, proteinase K (Parengyodontium album, UniProt P06873).
T2 construct: purchased Sigma Aldrich
T2 sequence (P06873 106-384): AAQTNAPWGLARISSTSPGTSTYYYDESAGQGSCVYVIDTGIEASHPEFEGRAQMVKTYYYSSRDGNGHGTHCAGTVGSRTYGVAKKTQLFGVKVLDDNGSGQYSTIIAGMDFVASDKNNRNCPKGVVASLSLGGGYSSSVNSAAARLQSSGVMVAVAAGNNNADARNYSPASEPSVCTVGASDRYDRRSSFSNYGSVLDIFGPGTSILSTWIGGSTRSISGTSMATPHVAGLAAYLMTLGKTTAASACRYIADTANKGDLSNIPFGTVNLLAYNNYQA
The data set is described as follows: Sensitivity to enzymes. Type of data set: in vitro ADME. Conditions: lipopeptide 1.0 mg/ml + proteinase K (~30 U/mg) 1.0 mg/ml in 50 mM phosphate buffer pH 7.0, equal volumes (20 μl each), 37°C, 12 h; residual activity by disc diffusion. The source says:
(§3) All enzymes were purchased from Sigma Aldrich.

The nature of data set [9]: Surface tension, Du-Nouy-Ring method. Format: physicochemical. The note with it: lipopeptide 0.2% (w/v), lowered from 72. As to the method: (§4) Biosurfactant property of lipopeptide was determined using the qualitative drop-collapse test (Youssef et al. [2004]). In this method, mineral oil (2 μl) was added to 96-well microtitre plate. The plate was equilibrated for 1 h at 37°C and 5 μl of the lipopeptide (10 μg, dissolved in water) was added to the surface of the oil and drop shape was observed after 1 min. The surface tension of a lipopeptide (0.2%, w/v) was measured using Du-Nouy-Ring method (Du Noüy and Pierre [1925]).

A further data set can be described thus: Heat stability assay. Type of data set: physicochemical. The note with it: for Residual activity (%): residual antimicrobial activity.
Text: as §3

Data set [10] in a line: Qualitative drop-collapse test. Format: physicochemical. The note with it: 2 μl mineral oil, 5 μl lipopeptide (10 μg, dissolved in water), drop shape after 1 min. As to the method:
as §4

Data set [11] can be described thus: Effect of pH on lipopeptide activity. Type of data set: physicochemical. The note with it: for Residual activity (%): residual antimicrobial activity.
Text: as §3

The subject of data set [12] is lipase. Conditions: lipopeptide 1.0 mg/ml + lipase (~9 U/mg) 1.0 mg/ml in 50 mM phosphate buffer pH 7.0, equal volumes (20 μl each), 37°C, 12 h; residual activity by disc diffusion. As to the method:
(§5) Sensitivity to temperature was determined by incubating the purified lipopeptide at different temperatures viz. 50°C, 60°C, 70°C, 80°C , 90°C, 100°C and 121°C for different durations. To determine the optimum pH for activity, purified compound was incubated over pH range of 3.0–12.0 for 30 min at 37°C. The sensitivity of the lipopeptide (1.0 mg/ml) to enzymes was tested against proteinase K (~30 U/mg), trypsin (~10,000 U/mg) and lipase (~9 U/mg). All enzymes were purchased from Sigma Aldrich. Enzyme solutions were prepared at 1.0 mg/ml in 50 mM phosphate buffer (pH 7.0). Equal volumes of enzyme solution and antimicrobial compound (20 μl each) were mixed and incubated at 37°C for 12 h. The enzyme reaction was terminated by heating reaction mixture at 80°C and residual activity was determined by disc diffusion method.

The target in data set [13] is T1, trypsin. Conditions: lipopeptide 1.0 mg/ml + trypsin (~10,000 U/mg) 1.0 mg/ml in 50 mM phosphate buffer pH 7.0, equal volumes (20 μl each), 37°C, 12 h; residual activity by disc diffusion. As to the method: as §5
Data set [14] deals with Bacillus subtilis (MTCC 619). Put plainly: MIC, microtiter plate dilution assay. Type of data set: cell-based. The note with it: 37°C, OD 600 nm at 24 and 48 h, triplicates. As to the method: (§6) The MIC of purified lipopeptide was evaluated by using a microtiter plate dilution assay. Test bacteria were grown to logarithmic phase under optimal conditions (up to 0.3 OD) and the test was performed in triplicates. To each well of the microtiter plate, 200 μl of fresh nutrient medium and 50 μl of bacterial suspension were added. Subsequently, different dilutions (50 μl) of freshly prepared samples were added to each well. The first column of the microtiter plate was left as a blank, containing fresh medium only. The microtiter plates were incubated at 37°C and OD was measured at 600 nm at 24 and 48 h using ELISA microplate reader (Bio-rad, Model 680XR).

Data set [15] has as its system Mycobacterium smegmatis (MTCC 6). The data set is described as follows: MIC, microtiter plate dilution assay. Type of data set: cell-based. The note with it: 37°C, OD 600 nm at 24 and 48 h, triplicates. As to the method:
as §6

For data set [16], the system named is Methicillin Resistant Staphylococcus aureus (MRSA). Put plainly: MIC, microtiter plate dilution assay. Format: cell-based. Conditions: clinical strain, 37°C, OD 600 nm at 24 and 48 h, triplicates. As to the method: as §6
Data set [17] has as its system Staphylococcus epidermidis (MTCC 435). Put plainly: MIC, microtiter plate dilution assay. Format: cell-based. Conditions: 37°C, OD 600 nm at 24 and 48 h, triplicates. As to the method:
as §6

In brackets after ≈: the same amount, converted by molar mass. Ends that are not written are not given here.

For the compound paenibacterin, in the data set on lipase [1], the resistance to lipase result is “resistant”. Moreover, on trypsin [2], the resistance to trypsin result is recorded as “resistant”.
In general, IC50 refers to the concentration at which inhibition is half-maximal. `CC[C@@]1(O)C(=O)OCc2c1cc1n(c2=O)Cc2cc3ccccc3nc2-1` [camptothecin, Camptothecin, reference compound] displayed an IC50 in [3] (Cricetulus griseus, CHO cells, SRB assay) of 0.959 µg/mL (≈ 2.75 µM).
As a reminder, the MIC is the smallest concentration in the dilution series that meets the test's criterion for growth inhibition. A lower MIC goes with inhibition by little substance. “ATGSHQ [lipopeptide, novel antimicrobial lipopeptide from Streptomyces amritsarensis; Ala-Thr-Gly-Ser-His-Gln, C-terminal amino acid linked to aliphatic chain -(CH2)7-CH2-(CH3)2-]”: in data set [4] (50 and 100 μg/0.1 ml per plate, 48 hours at 37°C), the mutagenicity result is on record as “non-mutagenic”. Further, the inhibition zone in data set [5] was 21 mm; in [6], 15 mm; in [8], 17 mm; in the data set on MRSA it was 13 mm. Further, the antimicrobial activity result (in [7]; with fungi) was “did not show activity” throughout. Moreover, the growth inhibition in data set [3] (2.5 μg/ml) is on record as 2.9%; in data set [3] (6.25 μg/ml), 16.8%; in data set [3] (12.5 μg/ml), 19.25%; in data set [3] (18.75 μg/ml), 23.28%; in data set [3] (25 μg/ml) it was 28.9%. Besides, the “stability to proteinase K” value on proteinase K is “negligible loss in activity”. For the same compound, the “surface tension of water” value in data set [9] is listed as 37 mN m^−1. Moreover, the “Residual activity (%)” value amounted to 100% in “Heat stability assay” (50°C, 1 h); 100% in the data set “Heat stability assay” (60°C, 1 h); 100% in “Heat stability assay” (70°C, 1 h); 84.2% in “Heat stability assay” (80°C, 1 h); 95.0% in “Heat stability assay” (90°C, 15 min); 86.3% in the data set “Heat stability assay” (100°C, 15 min). The “Residual activity (%)” value in “Heat stability assay” (121°C, 15 min (304 KPa), autoclaving) was 81.8%; in data set [11] (pH 2, 1 h/4°C), 0%; in data set [11] (pH 3, 1 h/4°C) it was 72.7%; in [11] (pH 4, 1 h/4°C), 84.6%; in data set [11] (pH 5, 1 h/4°C), 100%; in data set [11] (pH 6, 1 h/4°C), 100%. Besides, the “Residual activity (%)” value in data set [11] (pH 7, 1 h/4°C) amounted to 100%; in [11] (pH 8, 1 h/4°C), 100%; in data set [11] (pH 9, 1 h/4°C), 100%; in data set [11] (pH 10, 1 h/4°C), 86.3%; in data set [11] (pH 11, 1 h/4°C) it was 68.1%; in data set [11] (pH 12, 1 h/4°C), 0%. In addition, in the data set “Heat stability assay” (70°C for 1 h), the heat stability result is on record as “completely stable”. The same compound came in with a loss of activity in “Heat stability assay” (100°C, 15 minutes incubation) of 13.7%. Further, in “Heat stability assay” (after autoclaving (121°C for 15 min)), the “reduction of antimicrobial activity” value is 18.2%. Besides, the drop-collapse test result in [10] is “collapsed the oil drop”. Besides, in data set [11] (between pH 5.0–9.0), the “change in activity profile” value was “did not show any change”. Moreover, in the data set with lipase [12], the stability to lipase result is reported as “resistant”. Further, the stability to trypsin result at trypsin [13] was “resistant”. The minimum inhibitory concentration (MIC) stood at 10 µg/mL in data set [14], 25 µg/mL in [15], 45 µg/mL in [16] and 15 µg/mL in data set [17].
For the compound `Nc1ccc([N+](=O)[O-])cc1N` [positive mutagen, 4-Nitro-o-phenylenediamine, reference compound], in data set [4] (positive control, 20 μg plate^-1, compared with negative control), the “number of revertant colonies” value is “considerably higher”.

These data come from PMC4077001, “Purification and characterization of a novel lipopeptide from Streptomyces amritsarensis sp. nov. active against methicillin-resistant Staphylococcus aureus” (AMB Express, 2014).
